Measured values published in publication PMC9597602, “Metal Complexes as Antifungals? From a Crowd-Sourced Compound Library to the First In Vivo Experiments” (JACS Au, 2022).
Where “and” joins values, the source holds several entries; their conditions need not be identical. Identical values can stand only once. Like-named read-outs stand apart in the source and are kept apart here.

What was measured:
[1] = tested on: Acinetobacter baumannii ATCC 19606 type strain; experiment: CO-ADD antibacterial MIC assay; format: cell-based
Experimental: (§1) For the all the bacterial assays, each bacterial strain was cultured in cation-adjusted Mueller Hinton broth (CAMHB; Bacto Laboratories 212322) at 37 °C overnight. A sample of each culture was then diluted 40-fold in fresh CAMHB and incubated at 37 °C for 1.5–3 h. The resultant mid-log phase cultures were diluted with CAMHB (CFU/mL measured by OD600) and then added to each well of the compound-containing plates (384-well non-binding surface (NBS) plates; Corning CLS3640), giving a cell density of 5 × 10^5 CFU/mL and a total volume of 50 μL. Plates were covered and incubated at 37 °C for 18 h without shaking. Inhibition of bacterial growth was determined by measuring the absorbance at 600 nm (OD600) using media only as negative control and bacteria without inhibitors as positive control. MIC values were determined as the lowest concentration at which the growth was inhibited by ≥80% (equivalent to no visible growth by the eye). Colistin sulfate (Sigma C4461) and vancomycin HCl (Sigma 861987) were used as internal controls on each plate for Gram-negative and Gram-positive bacteria, respectively. All compounds were tested as two technical replicates in two independent biological assays, n = 4 final data.

[2] = tested on: Escherichia coli ATCC 25922 FDA control strain; experiment: CO-ADD antibacterial MIC assay; format: cell-based
Experimental: as §1

[3] = tested on: Pseudomonas aeruginosa ATCC 27853 QC control strain; experiment: CO-ADD antibacterial MIC assay; format: cell-based
Experimental: as §1

[4] = tested on: methicillin-resistant Staphylococcus aureus ATCC 43300; experiment: CO-ADD antibacterial MIC assay; format: cell-based
Experimental: as §1

[5] = tested on: Candida albicans ATCC 90028 NCCLS11; experiment: Antifungal MIC assay; format: cell-based; conditions: for MIC: Candida albicans, ATCC90028, comparator antifungals, read-out: MIC* Candida albicans ATCC 90028
Experimental: For the fungal assays, both fungi (yeast) strains were cultured for 3 days on Yeast Extract-Peptone Dextrose (YPD; Becton Dickinson 242720) agar at 30 °C. A yeast suspension of 1 × 10^6 to 5 × 10^6 CFU/mL (as determined by OD530) was prepared from five colonies from the agar plates, subsequently diluted with Yeast Nitrogen Base media (YNB; Becton Dickinson 233520), and added to each well of the compound containing plates (384-well plates, NBS; Corning CLS3640), giving a final cell density of 2.5 × 10^3 CFU/mL and a total volume of 50 μL. Plates were covered and incubated at 35 °C for 36 h without shaking. […] […], equivalent to ″optically clear-to-slightly hazy″ or MIC score of 0–1 as per CLSI guidelines M27 Reference Method for Broth Dilution Antifungal Susceptibility Testing of Yeasts. […] Fluconazole (Sigma F8929) was used as internal control on each plate for all strains. All compounds were tested as two technical replicates in two to four independent biological assays, n = 4–8 final data.

[6] = tested on: Cryptococcus neoformans H99 ATCC 208821 type strain; experiment: Antifungal MIC assay; format: cell-based; conditions: for MIC: Cryptococcus neoformans, ATCC208821, read-out: MIC* Cryptococcus neoformans ATCC 208821
Experimental: For the fungal assays, both fungi (yeast) strains were cultured for 3 days on Yeast Extract-Peptone Dextrose (YPD; Becton Dickinson 242720) agar at 30 °C. A yeast suspension of 1 × 10^6 to 5 × 10^6 CFU/mL (as determined by OD530) was prepared from five colonies from the agar plates, subsequently diluted with Yeast Nitrogen Base media (YNB; Becton Dickinson 233520), and added to each well of the compound containing plates (384-well plates, NBS; Corning CLS3640), giving a final cell density of 2.5 × 10^3 CFU/mL and a total volume of 50 μL. Plates were covered and incubated at 35 °C for 36 h without shaking. […] MIC values were recorded as the lowest concentration at which the growth was inhibited by ≥80%, equivalent to ″optically clear-to-slightly hazy″ or MIC score of 0–1 as per CLSI guidelines M27 Reference Method for Broth Dilution Antifungal Susceptibility Testing of Yeasts. […] Fluconazole (Sigma F8929) was used as internal control on each plate for all strains. All compounds were tested as two technical replicates in two to four independent biological assays, n = 4–8 final data.

[7] = tested on: HEK-293 human embryonic kidney cells ATCC CRL-1573
Experimental: The cells were incubated together with the compounds for 20 h at 37 °C in 5% CO2. […] Tamoxifen (Sigma T5648) was used as internal control on each plate.

[8] = tested on: human red blood cells; format: cell-based; conditions: initial CO-ADD screening, 1 h; 10% hemolysis
Experimental: Human whole blood (Australian Red Cross) was washed three times with 3 vol of 0.9% NaCl and resuspended in a concentration of 0.5 × 10^8 cells/mL, determined by a manual cell count in a Neubauer hemocytometer. […] After incubation, the plates were centrifuged at 1000g for 10 min to pellet cells and debris; 25 μL of the supernatant was then transferred to reading plates (384-well, polystyrene plated (PS), Corning CLS3680), with hemolysis determined by measuring the supernatant absorbance at […] (OD405) using cells without inhibitors as negative control and cells with 1% Triton X-100 (Sigma T8787) as positive control. […] Melittin (Sigma M2272) was used as internal control on each plate.

[9] = tested on: Candida auris CBS10913 JCM 15448; experiment: Antifungal MIC assay, extended panel; format: cell-based; conditions: Candidozyma auris, comparator antifungals, read-out: MIC* Candida auris CBS10913
Experimental: (§2) For the fungal assays, both fungi (yeast) strains were cultured for 3 days on Yeast Extract-Peptone Dextrose (YPD; Becton Dickinson 242720) agar at 30 °C. A yeast suspension of 1 × 10^6 to 5 × 10^6 CFU/mL (as determined by OD530) was prepared from five colonies from the agar plates, subsequently diluted with Yeast Nitrogen Base media (YNB; Becton Dickinson 233520), and added to each well of the compound containing plates (384-well plates, NBS; Corning CLS3640), giving a final cell density of 2.5 × 10^3 CFU/mL and a total volume of 50 μL. Plates were covered and incubated at 35 °C for 36 h without shaking. […] MIC […] Reference Method for Broth Dilution Antifungal Susceptibility Testing of Yeasts. […] Fluconazole (Sigma F8929) was used as internal control on each plate for all strains. All compounds were tested as two technical replicates in two to four independent biological assays, n = 4–8 final data.

[10] = tested on: Candida auris CBS12373 KCTC 17810; experiment: Antifungal MIC assay, extended panel; format: cell-based; conditions: Candidozyma auris, comparator antifungals, read-out: MIC* Candida auris CBS12373
Experimental: as §2

[11] = initial CO-ADD dose-response screening, ≥80% growth inhibition
[12] = read-out: HEK CC50, initial CO-ADD screening, 20 h
[13] = ≥80% inhibition, converted with MW of Table S12
[14] = single concentration (32 µg/mL) CO-ADD Primary Screening, no inhibition, no dose-response

| MIC Ab [1, 11] | MIC Ec [2, 11] | MIC Pa [3, 11] | MIC MRSA (Sa) [4, 11] | MIC Ca [5, 11] | MIC Cn [6, 11] | SMILES | RBC HC10 [8] | also measured |
| --- | --- | --- | --- | --- | --- | --- | --- | --- |
| > 20 µM | > 20 µM | > 20 µM | > 20 µM | > 20 µM | 20 µM | O=C([O][Eu]([O]C(=O)c1ccc(F)cc1F)[O]C(=O)c1ccc(F)cc1F)c1ccc(F)cc1F.c1cnc2c(c1)ccc1cccnc12 [Eu-S5] | 0.5 µM | CC50 [7, 12]: 13.6 µM |
| > 20 µM | > 20 µM | > 20 µM | > 20 µM | 20 µM | 20 µM | O=C([O][Eu]([O]C(=O)c1ccccc1F)[O]C(=O)c1ccccc1F)c1ccccc1F.c1cnc2c(c1)ccc1cccnc12 [Eu-S6] | > 20 µM | CC50 [7, 12]: 9.9 µM |
| > 20 µM | > 20 µM | > 20 µM | 10 µM | 20 µM | 5 µM | O=C([O][Eu]([O]C(=O)c1ccccc1F)[O]C(=O)c1ccccc1F)c1ccccc1F.c1ccc(-c2ccnc3c2ccc2c(-c4ccccc4)ccnc23)cc1 [Eu-S3] | > 20 µM | CC50 [7, 12]: 14.7 µM |
|  |  |  |  |  |  | CC(=O)N1CCN(c2ccc(OCC3COC(Cn4ccnc4)(c4ccc(Cl)cc4Cl)O3)cc2)CC1 (stereo not drawn) [Ketoconazole, reference compound] |  | MIC ([5]; MIC = ≥80% inhibition): 0.002 to 0.004 µg/mL; MIC [5, 13]: 0.005 to 0.01 µM; MIC [6]: > 64 µg/mL and > 170 µM; MIC ([9]; MIC = ≥80% inhibition): 0.004 to 0.016 µg/mL; MIC [9, 13]: 0.01 to 0.042 µM; MIC ([10]; MIC = ≥80% inhibition): ≤ 0.004 µg/mL; MIC [10, 13]: ≤ 0.01 µM |
| 32 µg/mL | 16 µg/mL | > 32 µg/mL | <= 0.25 μg/mL | 2 µg/mL | <= 0.25 μg/mL | CC1=CC=CC2=C(c3ccccc3)[C](=[Au]([Cl])([Cl])[Cl])C(c3ccccc3)(c3cccc(C)n3)N12 (stereo not drawn) [Au-S13] | 19.3 µg/mL | HEK CC50 ([7]; initial CO-ADD screening, 20 h): > 32 µg/mL |
|  |  |  |  |  |  | Cc1ccnc([S][Au][PH](c2ccco2)(c2ccco2)c2ccco2)n1 [Au-S2] |  | HEK CC50 ([7]; initial CO-ADD screening, 20 h): 1.38 µg/mL |
|  |  |  |  |  |  | C[C@@H](c1ncncc1F)[C@](O)(Cn1cncn1)c1ccc(F)cc1F [Voriconazole, reference compound] |  | MIC ([5]; MIC = ≥80% inhibition): 0.008 µg/mL; MIC [5, 13]: 0.032 µM; MIC [6]: ≥ 64 µg/mL and ≥ 260 µM; MIC ([9]; MIC = ≥80% inhibition): 0.004 to 0.008 µg/mL; MIC [9, 13]: 0.016 to 0.032 µM; MIC ([10]; MIC = ≥80% inhibition): 0.156 µg/mL; MIC [10, 13]: 0.447 µM |
| > 32 µg/mL | > 32 µg/mL | > 32 µg/mL | 2 µg/mL | 16 µg/mL | 1 µg/mL | Cc1cccc2[n+]1[Pd-2]([Cl])([Cl])[n+]1c(C)cccc1C(c1ccccc1)=C=C2c1ccccc1 [HM_C1] | > 32 µg/mL | HEK CC50 ([7]; initial CO-ADD screening, 20 h): 1.0 µg/mL |
|  |  |  |  | 0.25 µg/mL |  | Cn1ccn(Cc2ccccc2)[c]1=[Au]1[S][Mo]2([S]1)[S][Au](=[c]1n(C)ccn1Cc1ccccc1)[S]2 (stereo not drawn) [Au-S10] |  |  |
|  |  |  |  |  |  | COc1ccc(/C=C/C2=NN(c3ccc(C(=O)O)cc3)C(c3ccc(OC)c(OC)c3)C2)cc1OC (racemic) [Ligand-Ag1] |  | MIC Ab [1, 14]: > 32 µg/mL; MIC Ec [2, 14]: > 32 µg/mL; MIC Pa [3, 14]: > 32 µg/mL; MIC MRSA (Sa) [4, 14]: > 32 µg/mL; MIC Ca [5, 14]: > 32 µg/mL; MIC Cn [6, 14]: > 32 µg/mL |
| 32 µg/mL | > 32 µg/mL | 32 µg/mL | 2 µg/mL | <= 0.25 μg/mL | <= 0.25 μg/mL | Cc1cccc(C2(c3ccccc3)[C]([Au-][Cl])=C(C(C)(C)C)c3cccc(C)[n+]32)n1 (stereo not drawn) [Au-S15] | > 32 µg/mL | HEK CC50 ([7]; initial CO-ADD screening, 20 h): > 32 µg/mL |
|  |  |  |  |  |  | O=C(O)c1ccc(N2N=C(/C=C/c3ccccc3)CC2c2ccccc2)cc1 (racemic) [Ligand-Ag3] |  | MIC Ab [1, 14]: > 32 µg/mL; MIC Ec [2, 14]: > 32 µg/mL; MIC Pa [3, 14]: > 32 µg/mL; MIC MRSA (Sa) [4, 14]: > 32 µg/mL; MIC Ca [5, 14]: > 32 µg/mL; MIC Cn [6, 14]: > 32 µg/mL |
|  |  |  |  |  |  | CC1=C(C)C(C)C(c2ccc(-c3ccccc3)cc2)=C1C.Cc1ccccc1NC1=[N][Ir]([Cl])[NH]C(NS(=O)(=O)c2ccc([N+](=O)[O-])cc2)=N1 [Ir2] |  | CC50 ([7]; read-out: HEK293 CC50, ranges obtained upon retesting, new batch): 62 to 65 µM |
|  |  |  |  |  |  | O=C(O)c1ccc(N2N=C(/C=C/C=C/c3ccccc3)CC2/C=C/c2ccccc2)cc1 (racemic) [Ligand-Ag2] |  | MIC Ab [1, 14]: > 32 µg/mL; MIC Ec [2, 14]: > 32 µg/mL; MIC Pa [3, 14]: > 32 µg/mL; MIC MRSA (Sa) [4, 14]: > 32 µg/mL; MIC Ca [5, 14]: > 32 µg/mL; MIC Cn [6, 14]: > 32 µg/mL |

| SMILES | MIC Ab [1, 11] | MIC Ec [2, 11] | MIC Pa [3, 11] | MIC MRSA (Sa) [4, 11] | MIC Ca [5, 11] | MIC Cn [6, 11] | RBC HC10 [8] | also measured |
| --- | --- | --- | --- | --- | --- | --- | --- | --- |
| c1ccc([S][Au][PH](c2ccco2)(c2ccco2)c2ccco2)nc1 [Au-S1] |  |  |  | 16 µg/mL | 16 µg/mL | 16 µg/mL |  |  |
| O=[N+]([O-])[O-].[Ag+] [AgNO3, reference compound] | 0.25 µg/mL | 0.25 µg/mL | 0.25 µg/mL | 2 µg/mL | 0.25 µg/mL | 0.25 µg/mL | 8.9 µg/mL | HEK CC50 ([7]; initial CO-ADD screening, 20 h): > 32 µg/mL |
| FC(F)(F)c1ccnc([S][Au][PH](c2ccccc2)(c2ccccc2)c2ccccc2)n1 [Au-S6] |  |  |  | 0.25 µg/mL |  |  |  |  |
| FC(F)(F)c1ccnc([S][Au][PH](c2ccco2)(c2ccco2)c2ccco2)n1 [Au-S3] |  |  |  | 0.25 µg/mL |  |  |  |  |
